Our source for the TGI and GI50 values is PubChem BioAssay (NCI).

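These data come from cells grown in 96-well plates and exposed to compound for 48 hours at five concentrations. The concentration for 50% growth inhibition is given as GI50. Definition used: TGI = concentration required for complete inhibition of growth.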 A value given as a limit tells only on which side of the number the result lay.

Some test systems named below: NCI-H23 lung; HCC-2998 colon; SNB-19 CNS; UO-31 renal; SW-620 colon; NCI-H460 lung; MOLT-4 leukemia; TK-10 renal; U251 CNS; OVCAR-4 ovarian.
Experiment in all cases: NCI anticancer screen, dose series, 48 h

As for `COC(C/C=C\C=C\CC/C=C/CC(C)/C=C/C(=C\C(=O)O)CC(=O)O)/C(C)=C\C=C(/C)C(=O)O` (configuration not stated), the TGI in the test on NCI-H23 lung, in the test with HCC-2998 colon, with SNB-19 CNS, in the test on UO-31 renal, in the test on SW-620 colon and with NCI-H460 lung was above 100 µM each time. The TGI in the test on MOLT-4 leukemia, with TK-10 renal, in the test with U251 CNS and in the test with OVCAR-4 ovarian was above 100 µM throughout.

Consider `CCOC(=O)/C(C1=N[C@H](C(=O)OCC)CS1)=C(\O)c1ccccc1`, for which the TGI with NCI-H23 lung, in the test with HCC-2998 colon, with SNB-19 CNS, in the test on UO-31 renal, in the test with SW-620 colon and in the test with NCI-H460 lung was above 100 µM each time. Further, the TGI in the test with MOLT-4 leukemia, with U251 CNS and in the test with OVCAR-4 ovarian was above 100 µM in each case.

`NNc1nnc(-c2ccccc2)nc1Cc1ccccc1`: the TGI with NCI-H23 lung was above 100 µM; with HCC-2998 colon, above 100 µM; with SNB-19 CNS it was above 100 µM; in the test with UO-31 renal, 31.6 µM; with SW-620 colon it was above 100 µM; in the test on NCI-H460 lung, above 100 µM. Moreover, the TGI in the test with MOLT-4 leukemia, with TK-10 renal, with U251 CNS and with OVCAR-4 ovarian was above 100 µM each time.

For the molecule `Cn1cnc(/C=C/C#N)c1`, the TGI in the test on NCI-H23 lung, in the test with HCC-2998 colon, with SNB-19 CNS, in the test with UO-31 renal, in the test with SW-620 colon and in the test on NCI-H460 lung was above 100 µM throughout. Further, the TGI in the test with MOLT-4 leukemia, in the test on TK-10 renal, with U251 CNS and with OVCAR-4 ovarian was above 100 µM each time.

For the molecule `COc1ccc(-c2cc(-c3ccc(OC)c(OC)c3)nc(SCCCC(=O)NO)n2)cc1`, the GI50 in the test on NCI-H23 lung was 1.96 µM; in the test on HCC-2998 colon, 2.14 µM; in the test with SNB-19 CNS it was 2.54 µM; in the test on UO-31 renal, 0.301 µM; with SW-620 colon, 0.906 µM; with NCI-H460 lung, 0.842 µM. Moreover, the figures for the GI50 with TK-10 renal, with U251 CNS and with OVCAR-4 ovarian were 0.722 µM, 1.76 µM and 2.02 µM, respectively. In addition, the TGI in the test with NCI-H23 lung turned out to be 6.16 µM; in the test on HCC-2998 colon, 5.63 µM; in the test with SNB-19 CNS, 39.1 µM; in the test on UO-31 renal, 1.44 µM; with SW-620 colon, 10.7 µM; in the test on NCI-H460 lung, 5.24 µM. Moreover, the TGI in the test on TK-10 renal was above 100 µM; in the test on U251 CNS it was 5.78 µM; with OVCAR-4 ovarian it was above 100 µM.

For the molecule `Cc1cc(=O)[nH]c(NN2C(Cl)C(=O)C2c2ccco2)n1` (configuration not stated), the TGI in the test with NCI-H23 lung, with HCC-2998 colon, in the test with SNB-19 CNS, with UO-31 renal, with SW-620 colon and in the test on NCI-H460 lung was above 100 µM each time. For the same molecule, the TGI with MOLT-4 leukemia, in the test with TK-10 renal, in the test on U251 CNS and in the test on OVCAR-4 ovarian was above 100 µM each time.

Take `CCOC(=O)NC(OCc1ccccc1)(C(=O)OC)C(F)(F)F` (configuration not stated): the TGI in the test with NCI-H23 lung, with HCC-2998 colon, with SNB-19 CNS, in the test with UO-31 renal, in the test on SW-620 colon and in the test with NCI-H460 lung was above 100 µM throughout. In addition, the TGI in the test with MOLT-4 leukemia, in the test on TK-10 renal, in the test on U251 CNS and in the test on OVCAR-4 ovarian was above 100 µM each time.
